Where a SMILES comes first, the peptide text is derived from it. Bridges are numbered along the chain shown (N, C = ends). [ ]: non-standard residue; d: D form. The star is where a group is joined. X1 = O=C(O)CCCCCCCCCCCCCCCCC(=O)N[C@@H](CCC(=O)NCCOCCOCCOCCOCCOCCOCCOCCOCCOCCOCCOCCn1cc(C*)nn1)C(=O)O; Phe(4-COOH) = N[C@@H](Cc1ccc(C(=O)O)cc1)C(=O)O; Bip = N[C@@H](Cc1ccc(-c2ccccc2)cc1)C(=O)O; Phe(3-Me) = Cc1cccc(C[C@H](N)C(=O)O)c1; C12 diacid = O=C(O)CCCCCCCCCCC(=O)*; 4Pal = N[C@@H](Cc1ccncc1)C(=O)O; Cha = N[C@@H](CC1CCCCC1)C(=O)O; Carboxymethyl = O=C(O)C*; NMeA = CN[C@@H](C)C(=O)O; Orn = NCCC[C@H](N)C(=O)O; Dab = NCC[C@H](N)C(=O)O; Nva = CCC[C@H](N)C(=O)O; Dap = NC[C@H](N)C(=O)O; AEEA = NCCOCCOCC(=O)O
Molecular target: T1, human PD-1 (Jurkat-PD-1 cells; binding of PE-labeled human PD-L1-Ig) (Homo sapiens, UniProt Q15116)
T1 construct: expressed in transfected cells; host or cells: Jurkat (Jurkat-PD-1 / Jurkat-hPD-1)
Assay: Jurkat-PD-1 Cell Binding High-Content Screening Assay
Settings: Jurkat cell line over-expressing human PD-1; compound 2 h at 37° C., then PE-labeled PD-L1-Ig 20 nM final, 1 hour; read-out: Jurkat hPD1 PDL1 IC50
Description: The ability of the compounds of formula (I) to bind to PD-1 was investigated using a Jurkat-PD-1 Cell Binding High-Content Screening Assay.
Phycoerythrin (PE) was covalently linked to the Ig epitope tag of human PD-L1-Ig and fluorescently-labeled PD-L1-Ig was used for binding studies with a Jurkat cell line over-expressing human PD-1 (Jurkat-PD-1). Briefly, 8×10^3 Jurkat-hPD-1 cells were seeded into 384 well plates in 20 μl of DIVEM supplemented with 10% fetal calf serum. 100 nl of compound was added to cells followed by incubation at 37° C. for 2 h. Then, 5 μl of PE-labeled PD-L1-Ig (20 nM final), diluted in DiVEM supplemented with 10 fetal calf serum. After 1 hour incubation, cells were fixed with […] in dPBS containing 10 µg/mL Hoechst 33342 and then washed 3× in 100 μl dPB S. Data was collected and processed using a Cell Insight NXT High Content Imager and associated software.

T1 sequence (Q15116 25-288): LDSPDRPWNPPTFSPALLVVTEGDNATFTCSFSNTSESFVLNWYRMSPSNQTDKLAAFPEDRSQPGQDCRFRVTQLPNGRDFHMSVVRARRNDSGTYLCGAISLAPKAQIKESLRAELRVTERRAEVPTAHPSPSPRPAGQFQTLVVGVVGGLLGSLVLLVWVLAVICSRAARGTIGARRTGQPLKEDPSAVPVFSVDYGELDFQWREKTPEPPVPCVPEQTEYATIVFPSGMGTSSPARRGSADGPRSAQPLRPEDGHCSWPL

Compound | IC50 [nM]
Cc1cccc(C[C@@H]2NC(=O)[C@H](CC(=O)O)NC(=O)[C@H](Cc3ccc(OCC(=O)O)cc3)NC(=O)[C@H](CCCNC(=N)N)NC(=O)CSC[C@@H](C(=O)N[C@@H](CCN)C(N)=O)NC(=O)[C@H](Cc3ccc(OCc4cn(CCOCCOCCOCCOCCOCCOCCOCCOCCOCCOCCOCCNC(=O)CC[C@H](NC(=O)CCCCCCCCCCCCCCCCC(=O)O)C(=O)O)nn4)cc3)NC(=O)[C@H](C(C)C)NC(=O)[C@H](CC3CCCCC3)NC(=O)[C@H](CCN)NC(=O)[C@@H](CC(C)C)NC(=O)[C@H](CCCN)NC(=O)[C@H](Cc3ccc(OCC(=O)O)cc3)NC(=O)[C@H](Cc3ccc(-c4ccccc4)cc3)NC(=O)[C@H](Cc3ccc(OCC(=O)O)cc3)NC2=O)c1 [Compound 1014] ({CH2CO}-RY(Carboxymethyl)D[Phe(3-Me)]Y(Carboxymethyl)[Bip]Y(Carboxymethyl)[Orn][dL][Dab][Cha]VY(X1)C[Dab]-NH2; thioether N-14) | 73
Cc1cccc(C[C@@H]2NC(=O)[C@H](CC(=O)O)NC(=O)[C@H](Cc3ccc(OCC(=O)O)cc3)NC(=O)[C@H](CN)NC(=O)CSC[C@@H](C(=O)N[C@@H](CCN)C(N)=O)NC(=O)[C@H](CCC(=O)O)NC(=O)[C@H](C(C)C)NC(=O)[C@H](CC3CCCCC3)NC(=O)[C@H](CCN)NC(=O)[C@@H](CC(C)C)NC(=O)[C@H](CCCN)NC(=O)[C@H](Cc3ccc(OCc4cn(CCOCCOCCOCCOCCOCCOCCOCCOCCOCCOCCOCCNC(=O)CC[C@H](NC(=O)CCCCCCCCCCCCCCCCC(=O)O)C(=O)O)nn4)cc3)NC(=O)[C@H](Cc3ccc(-c4ccccc4)cc3)NC(=O)[C@H](Cc3ccc(OCC(=O)O)cc3)NC2=O)c1 [Compound 1001] ({CH2CO}-[Dap]Y(Carboxymethyl)D[Phe(3-Me)]Y(Carboxymethyl)[Bip]Y(X1)[Orn][dL][Dab][Cha]VEC[Dab]-NH2; thioether N-14 (inferred)) | 160
Cc1cccc(C[C@@H]2NC(=O)[C@H](CC(=O)O)NC(=O)[C@H](Cc3ccc(OCC(=O)O)cc3)NC(=O)[C@H](Cc3c[nH]cn3)NC(=O)CSC[C@@H](C(=O)N[C@@H](CCN)C(N)=O)NC(=O)[C@H](Cc3ccc(OCc4cn(CCOCCOCCOCCOCCOCCOCCOCCOCCOCCOCCOCCNC(=O)CC[C@H](NC(=O)CCCCCCCCCCCCCCCCC(=O)O)C(=O)O)nn4)cc3)NC(=O)[C@H](C(C)C)NC(=O)[C@H](CC3CCCCC3)NC(=O)[C@H](CCN)NC(=O)[C@@H](CC(C)C)NC(=O)[C@H](CCCN)NC(=O)[C@H](Cc3ccc(OCC(=O)O)cc3)NC(=O)[C@H](Cc3ccc(-c4ccccc4)cc3)NC(=O)[C@H](Cc3ccc(OCC(=O)O)cc3)NC2=O)c1 [Compound 1015] ({CH2CO}-HY(Carboxymethyl)D[Phe(3-Me)]Y(Carboxymethyl)[Bip]Y(Carboxymethyl)[Orn][dL][Dab][Cha]VY(X1)C[Dab]-NH2; thioether N-14) | 100
CCC[C@@H]1NC(=O)CSC[C@@H](C(=O)N[C@@H](CCN)C(N)=O)NC(=O)[C@H](CCC(=O)O)NC(=O)[C@H](C(C)C)NC(=O)[C@H](CC2CCCCC2)NC(=O)[C@H](CCN)NC(=O)[C@@H](CC(C)C)NC(=O)[C@H](CCCN)NC(=O)[C@H](Cc2ccc(OCC(=O)O)cc2)NC(=O)[C@H](Cc2ccc(-c3ccccc3)cc2)NC(=O)[C@H](Cc2ccc(OCc3cn(CCOCCOCCOCCOCCOCCOCCOCCOCCOCCOCCOCCNC(=O)CC[C@H](NC(=O)CCCCCCCCCCCCCCCCC(=O)O)C(=O)O)nn3)cc2)NC(=O)[C@H](Cc2cccc(C)c2)NC(=O)[C@H](CC(=O)O)NC(=O)[C@H](Cc2ccc(OCC(=O)O)cc2)NC1=O [Compound 1018] ({CH2CO}-[Nva]Y(Carboxymethyl)D[Phe(3-Me)]Y(X1)[Bip]Y(Carboxymethyl)[Orn][dL][Dab][Cha]VEC[Dab]-NH2; thioether N-14) | 110
Cc1cccc(C[C@@H]2NC(=O)[C@H](CC(=O)O)NC(=O)[C@H](Cc3ccc(OCC(=O)O)cc3)NC(=O)[C@H](Cc3ccc(OCc4cn(CCOCCOCCOCCOCCOCCOCCOCCOCCOCCOCCOCCNC(=O)CC[C@H](NC(=O)CCCCCCCCCCCCCCCCC(=O)O)C(=O)O)nn4)cc3)NC(=O)CSC[C@@H](C(=O)N[C@@H](CCN)C(N)=O)NC(=O)[C@H](CCC(=O)O)NC(=O)[C@H](C(C)C)NC(=O)[C@H](CC3CCCCC3)NC(=O)[C@H](CCN)NC(=O)[C@@H](CC(C)C)NC(=O)[C@H](CCCN)NC(=O)[C@H](Cc3ccc(OCC(=O)O)cc3)NC(=O)[C@H](Cc3ccc(-c4ccccc4)cc3)NC(=O)[C@H](Cc3ccc(OCC(=O)O)cc3)NC2=O)c1 [Compound 1011] ({CH2CO}-Y(X1)Y(Carboxymethyl)D[Phe(3-Me)]Y(Carboxymethyl)[Bip]Y(Carboxymethyl)[Orn][dL][Dab][Cha]VEC[Dab]-NH2; thioether N-14) | 340
Cc1cccc(C[C@@H]2NC(=O)[C@H](CC(=O)O)NC(=O)[C@H](Cc3ccc(OCC(=O)O)cc3)NC(=O)[C@H](CN)NC(=O)CSC[C@@H](C(=O)N[C@@H](CCN)C(=O)NCCOCCOCC(N)=O)NC(=O)[C@H]([C@@H](C)O)NC(=O)[C@H](C(C)C)NC(=O)[C@H](CC3CCCCC3)NC(=O)[C@H](CCN)NC(=O)[C@@H](CC(C)C)NC(=O)[C@H](COCc3cn(CCOCCOCCOCCOCCOCCOCCOCCOCCOCCOCCOCCNC(=O)CC[C@H](NC(=O)CCCCCCCCCCCCCCCCC(=O)O)C(=O)O)nn3)NC(=O)[C@H](Cc3ccc(OCC(=O)O)cc3)NC(=O)[C@H](Cc3ccc(-c4ccccc4)cc3)NC(=O)[C@H](Cc3ccc(OCC(=O)O)cc3)NC2=O)c1 [Compound 1043] ({CH2CO}-[Dap]Y(Carboxymethyl)D[Phe(3-Me)]Y(Carboxymethyl)[Bip]Y(Carboxymethyl)S(X1)[dL][Dab][Cha]VTC[Dab][AEEA]-NH2; thioether N-14) | 610

The remaining lines, values ahead:

IC50 [nM] | Compound
99 | Cc1cccc(C[C@@H]2NC(=O)[C@H](CC(=O)O)NC(=O)[C@H](Cc3ccc(C(=O)O)cc3)NC(=O)[C@H]([C@@H](C)O)NC(=O)CSC[C@@H](C(=O)N[C@@H](CCN)C(N)=O)NC(=O)[C@H](CCC(=O)O)NC(=O)[C@H](C(C)C)NC(=O)[C@H](CC3CCCCC3)NC(=O)[C@H](CCN)NC(=O)[C@@H](CC(C)C)NC(=O)[C@H](CCCN)NC(=O)[C@H](Cc3ccc(C(=O)O)cc3)NC(=O)[C@H](Cc3ccc(-c4ccccc4)cc3)NC(=O)[C@H](Cc3ccc(OCc4cn(CCOCCOCCOCCOCCOCCOCCOCCOCCOCCOCCOCCNC(=O)CC[C@H](NC(=O)CCCCCCCCCCCCCCCCC(=O)O)C(=O)O)nn4)cc3)NC2=O)c1 [Compound 1023] ({CH2CO}-T[Phe(4-COOH)]D[Phe(3-Me)]Y(X1)[Bip][Phe(4-COOH)][Orn][dL][Dab][Cha]VEC[Dab]-NH2; thioether N-14)
870 | CC(C)C[C@H]1NC(=O)[C@H](C)N(C)C(=O)[C@H](CCCCNC(=O)CCCCCCCCCCC(=O)O)NC(=O)[C@H](Cc2ccc(-c3ccccc3)cc2)NC(=O)[C@H](C(C)C)NC(=O)[C@H](Cc2c[nH]c3ccccc23)NC(=O)[C@H](CC(=O)O)NC(=O)[C@H](Cc2ccncc2)NC(=O)[C@H](Cc2ccc(OCC(=O)O)cc2)NC(=O)CSC[C@@H](C(N)=O)NC(=O)[C@H](CO)NC(=O)[C@H](C(C)C)NC(=O)[C@H](CC2CCCCC2)NC(=O)[C@H](CC(N)=O)NC1=O [Compound 1039] ({CH2CO}-Y(Carboxymethyl)[4Pal]DWV[Bip]K(C12 diacid)[NMeA][dL]N[Cha]VSC-NH2; thioether N-14)
250 | Cc1cccc(C[C@@H]2NC(=O)[C@H](CC(=O)O)NC(=O)[C@H](Cc3ccc(OCC(=O)O)cc3)NC(=O)[C@H](CN)NC(=O)CSC[C@@H](C(=O)N[C@@H](CCN)C(=O)NCCOCCOCC(N)=O)NC(=O)[C@H]([C@@H](C)O)NC(=O)[C@H](C(C)C)NC(=O)[C@H](CC3CCCCC3)NC(=O)[C@H](CCN)NC(=O)[C@@H](CC(C)C)NC(=O)[C@H](CCCN)NC(=O)[C@H](Cc3ccc(OCC(=O)O)cc3)NC(=O)[C@H](Cc3ccc(-c4ccccc4)cc3)NC(=O)[C@H](COCc3cn(CCOCCOCCOCCOCCOCCOCCOCCOCCOCCOCCOCCNC(=O)CC[C@H](NC(=O)CCCCCCCCCCCCCCCCC(=O)O)C(=O)O)nn3)NC2=O)c1 [Compound 1040] ({CH2CO}-[Dap]Y(Carboxymethyl)D[Phe(3-Me)]S(X1)[Bip]Y(Carboxymethyl)[Orn][dL][Dab][Cha]VTC[Dab][AEEA]-NH2; thioether N-14)
110 | Cc1cccc(C[C@@H]2NC(=O)[C@H](CC(=O)O)NC(=O)[C@H](Cc3ccc(OCC(=O)O)cc3)NC(=O)[C@H](CN)NC(=O)CSC[C@@H](C(=O)N[C@@H](CCN)C(N)=O)NC(=O)[C@H](CCC(=O)O)NC(=O)[C@H](C(C)C)NC(=O)[C@H](CC3CCCCC3)NC(=O)[C@H](CCN)NC(=O)[C@@H](CC(C)C)NC(=O)[C@H](CCCN)NC(=O)[C@H](Cc3ccc(OCC(=O)O)cc3)NC(=O)[C@H](Cc3ccc(-c4ccccc4)cc3)NC(=O)[C@H](Cc3ccc(OCc4cn(CCOCCOCCOCCOCCOCCOCCOCCOCCOCCOCCOCCNC(=O)CC[C@H](NC(=O)CCCCCCCCCCCCCCCCC(=O)O)C(=O)O)nn4)cc3)NC2=O)c1 [Compound 1004] ({CH2CO}-[Dap]Y(Carboxymethyl)D[Phe(3-Me)]Y(X1)[Bip]Y(Carboxymethyl)[Orn][dL][Dab][Cha]VEC[Dab]-NH2; thioether N-14)
